Source: publication PMC7573564, “The Sensing Liver: Localization and Ligands for Hepatic Murine Olfactory and Taste Receptors” (Frontiers in Physiology, 2020)
Entries after “also recorded” stand apart in the source; their conditions may differ.

Legend:
Olfr177 = Olfr177 (Mus musculus, UniProt E9Q7W1); assay: cAMP-dependent dual luciferase reporter assay, Olfr177 expressed in HEK293T cells; type: cell-based; details: for Olfr177 activation (cAMP response, Firefly:Renilla), in words: HEK293T cells expressing Olfr177; for EC50: HEK293T cells expressing Olfr177, Firefly:Renilla ratio, 4 h, dose response of at least 6 concentrations, read-out: EC50 for activation of Olfr177
Sequence of Olfr177 (E9Q7W1 entry or part of it): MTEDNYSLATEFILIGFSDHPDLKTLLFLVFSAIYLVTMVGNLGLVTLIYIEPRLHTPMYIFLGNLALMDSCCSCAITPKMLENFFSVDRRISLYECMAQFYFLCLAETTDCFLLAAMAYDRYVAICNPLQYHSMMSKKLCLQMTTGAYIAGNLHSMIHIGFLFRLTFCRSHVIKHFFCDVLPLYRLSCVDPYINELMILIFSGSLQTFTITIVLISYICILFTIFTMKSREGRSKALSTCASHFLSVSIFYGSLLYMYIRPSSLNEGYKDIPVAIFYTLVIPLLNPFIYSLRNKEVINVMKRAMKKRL
Source text: (§1) For ORs whose trafficking conditions could be established as described above, an unbiased ligand screen using a dual-luciferase reporter assay (Promega) was used to identify potential ligands. Briefly, ORs were transiently transfected (Lipofectamine 2000, Invitrogen) in triplicate into HEK293T cells along with constructs encoding for CREB-dependent luciferase (Firefly) and a constitutively expressed luciferase (Renilla), along with any accessory proteins previously established to be required for effective cell-surface trafficking. Additional surface labeling experiments were performed with the Firefly and Renilla constructs to ensure effective trafficking was not lost under these transfection conditions. OR activation leads to a rise in cAMP which drives an increase in Firefly luciferase expression. Firefly activity is normalized to the activity of the Renilla luciferase to control for variation in cell number and transfection efficiency. Data were collected using a FLUOstar Omega automated plate reader (BMG LabTech, Cary, NC, United States). Cells were allowed to incubate for at least 30 min in CD293 minimal media, and were then bathed with potential odorants diluted in minimal media for 4 h before measuring Firefly and Renilla-derived luminescence. Initially, screening was performed using odorant mixes that are grouped mainly by functional groups (BzB: nonanal, heptanal, valeraldehyde; BzC: carvone, eugenol, cinnamaldehyde; MA: amyl acetate, 3-octanone, acetophenone; OXLK: 2,3-butanedione, pyruvaldehyde, acetic acid, 1,2-ethanedithiol, 2-butanone; THI-DI: 1,6-hexanedithiol, 1,2-ethanedithiol, 2-methyl-1-propanethiol, 1,2-butanedithiol, 2,3-butanedithiol). These mixtures are known to elicit activation of a large number of olfactory sensory neurons and thus cover a wide range of ‘odorant space’ ([Pluznick et al., 2013]), followed by any known ligands to ORs in the same family as those being tested, as well as physiologically relevant substances. A complete list of chemicals used for screening is found in Supplementary Table 1 and all chemicals tested were obtained from Sigma or Fisher Scientific. To begin, all compounds screened were tested at a minimum of two concentrations (100–300 μm and 1–5 mM) to cover a wide range of potential activation. For each assay, Olfr78 or Olfr1393 and known activators of these receptors (Propionate and Cycloheptanol, respectively) were used as positive controls. In order to determine specific activation, potential activators of one receptor were also tested on at least one other OR simultaneously. Negative controls were performed with both media, and media containing DMSO. […] A significant rise in Firefly:Renilla over baseline was determined by multiple T-Tests ([…] deemed significant).

heme oxygenase = tested on: heme oxygenase; design: method as in Parra, 2012; details: hepatocellular carcinoma line (HepG2); ref Parra, 2012; cited from earlier work
OR5K1 = tested on: OR5K1; design: method as in Wilkin Françoise et al., 2015; details: ref Wilkin Françoise et al., 2015; cited from earlier work
phosphodiesterase = tested on: phosphodiesterase; design: method as in Parra, 2012; details: ref Parra, 2012; cited from earlier work
CYP2A6 = tested on: CYP2A6; design: method as in Gyoubu and Miyazawa, 2007; Miyazawa and Gyoubu, 2007; details: ref Gyoubu and Miyazawa, 2007; cited from earlier work
Olfr57 = Olfr57 (Mus musculus, UniProt Q8VGU7); assay: cAMP-dependent dual luciferase reporter assay, Olfr57 expressed in HEK293T cells; type: cell-based; details: for EC50: HEK293T cells expressing Olfr57, Firefly:Renilla ratio, 4 h, dose response of at least 6 concentrations, read-out: EC50 for activation of Olfr57; for Olfr57 activation (cAMP-mediated response), in words: HEK293T cells expressing Olfr57
Sequence of Olfr57 (Q8VGU7 entry or part of it): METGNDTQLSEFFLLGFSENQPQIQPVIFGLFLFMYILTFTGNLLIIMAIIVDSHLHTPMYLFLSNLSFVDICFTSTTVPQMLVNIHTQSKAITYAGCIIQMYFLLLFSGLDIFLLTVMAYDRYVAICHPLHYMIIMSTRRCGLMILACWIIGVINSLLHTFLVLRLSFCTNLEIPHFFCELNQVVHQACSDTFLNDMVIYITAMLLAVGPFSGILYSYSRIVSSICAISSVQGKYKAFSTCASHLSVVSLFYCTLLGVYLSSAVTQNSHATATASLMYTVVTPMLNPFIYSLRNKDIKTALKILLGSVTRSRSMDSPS
Source text: as §1

Candida albicans = tested on: Candida albicans; design: method as in Manoharan et al., 2017; details: ref Manoharan et al., 2017; cited from earlier work
[1] = tested on: Olfr16 and its human homolog, OR10J5; design: method as in von der Weid et al., 2015; Tong et al., 2017; details: ref von der Weid et al., 2015; Tong et al., 2017; cited from earlier work
Olfr544 = tested on: Olfr544; design: method as in Abaffy et al., 2007; Kang et al., 2015; Thach et al., 2017; details: ref Abaffy et al., 2007; Kang et al., 2015; Thach et al., 2017; cited from earlier work
[2] = tested on: Olfr78 and its human homolog, OR51E2; design: method as in Pluznick et al., 2013; details: ref Pluznick et al., 2013; cited from earlier work
MOR139-1 = tested on: MOR139-1; design: method as in Hiroaki Matsunami, 2010; details: ref Hiroaki Matsunami, 2010; cited from earlier work

For `Cc1cnc(C)c(C)n1` [2,3,5-trimethylpyrazine], the “Olfr177 activation (cAMP response, Firefly:Renilla), in words” value (“Olfr177 activation” below) (Olfr177) was “failed to plateau”.

For `CCc1ncc(C)nc1C` [2-ethyl-3,5-dimethylpyrazine], the heme oxygenase activity (heme oxygenase) is given as “induced”, the “Activation of OR5K1” value (OR5K1) is given as “activated” and the phosphodiesterase activity (phosphodiesterase) is given as “inhibit”. The “Olfr177 activation” value (Olfr177) was “significant increase” and the EC50 (Olfr177) was 1070 µM.

Compound `CCc1nccnc1C` [2-ethyl-3-methylpyrazine] has an EC50 (Olfr177) of 1670 µM.

In the case of `CC12CCC(C1)C(C)(C)C2=O` [(1R)-(-)-fenchone], the “metabolized in the liver by microsomal enzyme CYP2A6” value (CYP2A6) is given as “metabolized”, the EC50 (Olfr57) is given as 94 µM and the “antibiofilm and antihyphal properties” value (Candida albicans) is given as “antibiofilm and antihyphal properties”.

In the case of `CC(=O)c1ccccc1` [Acetophenone], the “Activation of Olfr16 and OR10J5” value [1] is listed as “activated”.

In the case of `O=C(O)CCCCCCCC(=O)O` [azelaic acid], the “Activation of Olfr544” value (Olfr544) is listed as “activated”.

For `CC1(C)C2CCC1(C)C(O)C2` (centres unmarked) [borneol], the EC50 (Olfr57) is given as 240 µM and the “antibiofilm and antihyphal properties” value (Candida albicans) is given as “antibiofilm and antihyphal properties”.

With `C=C1C2CCC(C2)C1(C)C` (centres unmarked) [camphene] the “Olfr57 activation (cAMP-mediated response), in words” value (“Olfr57 activation” below) (Olfr57) was “did not elicit a cAMP-mediated response; also recorded: non-activators”.

For `CC1(C)C2CCC1(CS(=O)(=O)O)C(=O)C2` (centres unmarked) [camphorsulfonic acid], the “Olfr57 activation” value (Olfr57) was “did not elicit a cAMP-mediated response; also recorded: non-activators”.

With `CC12CCC(CC1)C(C)(C)O2` [eucalyptol] the EC50 (Olfr57) was 234 µM.

For `CC12CCC(C1)C(C)(C)C2O` (centres unmarked) [fenchyl alcohol], the EC50 (Olfr57) is given as 45 µM and the “antibiofilm and antihyphal properties” value (Candida albicans) is given as “antibiofilm and antihyphal properties”.

In the case of `CC(C)(O)CCCC1=CCC(C=O)CC1` (centres unmarked) [lyral], the “Activation of Olfr16 and OR10J5” value [1] is listed as “activated”.

For `O=C1CC2CC[C@H]1C2` [norcamphor], the “Olfr57 activation” value (Olfr57) was “did not elicit a cAMP-mediated response; also recorded: non-activators”.

For `C=C1CCC2CC1C2(C)C` (centres unmarked) [pinene], the “Olfr57 activation” value (Olfr57) was “did not elicit a cAMP-mediated response; also recorded: non-activators”.

With `c1cnccn1` [pyrazine] the “Olfr177 activation” value (Olfr177) was “did not elicit OR activation”.

With `CC(C)[C@]12CC(=O)[C@H](C)[C@H]1C2` [thujone] the “Olfr57 activation” value (Olfr57) was “did not elicit a cAMP-mediated response; also recorded: non-activators”.

For `CC1=CC[C@@]23CC1C(C)(C)[C@@H]2CC[C@H]3C` [α-cedrene], the “Activation of Olfr16 and OR10J5” value [1] is given as “activated”.

In the case of `CC(=O)/C=C/C1=C(C)CCCC1(C)C` [β-ionone], the “Response of Olfr78 and OR51E2” value [2] is given as “respond”.

In the case of (1R)-(+)-camphor, the “Olfr57 activation” value (Olfr57) is listed as “weakly activate”, the “Response of MOR139-1” value (MOR139-1) is listed as “respond” and the “antibiofilm and antihyphal properties” value (Candida albicans) is listed as “antibiofilm and antihyphal properties”.
